Reference: patent US12514806B2, “Cosmetic composition comprising ceramides and sphingolipid” (Croda Korea Ltd, priority 2022, dated 2026)

Assays:
Format in all cases: cell-based
[1] = tested on: aquaporin 3; assay: Aquaporin 3 expression in 3D skin model by immunofluorescence; settings: Experimental Example 4; creams including 0.01% and 0.1% of EOP on 3D skin model; compared to control; concentration-dependent; FIGS. 11-12
Method: (§1) To verify the difference in skin moisturizing according to a ceramide content ratio, each of the creams of Examples 1 to 16 was applied to 3D skin model (EPI-201) manufactured by MatTek, and then the expression of aquaporin 3 and filaggrin was examined.
(§2) Aquaporin 3 expression and filaggrin expression were analyzed by immunofluorescence. Specifically, after the 3D skin model was treated with each of the creams of Examples 1 to 16, the 3D skin model was incubated for 48 hours, and then each cream was washed out with PBS. The 3D skin model was put into a cassette and fixed with 10% formalin, and then made into a paraffin block through dehydration, transparency, penetration, and embedding processes. For deparaffinization, slides were prepared by sectioning to 3 μm, and then paraffin was melted in a dry oven at 60° C. for 30 minutes. […] After DAPI mounting, the slides were observed using a fluorescence microscope, and the results thereof are illustrated in FIGS. 1 to 4. […]
(§3) The moisturizing and barrier factors were analyzed by immunofluorescence in the same manner as in Experimental Example 1, and the results thereof are illustrated in FIGS. 11 and 12. […]
(§4) The moisturizing factors were analyzed by immunofluorescence in the same manner as in Experimental Example 1, and the results thereof are illustrated in FIGS. 15 to 18.

[2] = tested on: filaggrin; assay: Filaggrin expression in 3D skin model by immunofluorescence; settings: Experimental Example 4; creams including 0.01% and 0.1% of EOP on 3D skin model; compared to control; concentration-dependent; FIGS. 11-12
Method: as §1, §2, §3, §4

[3] = tested on: ceramide; assay: Amount of ceramide in 3D skin model by immunofluorescence; settings: Experimental Example 4; creams including 0.01% and 0.1% of EOP on 3D skin model; compared to control; FIGS. 11-12
Method: as §2, with “minutes. Then, the slides were treated with xylene for 15 minutes, 100% ethanol for 5 minutes, 95% ethanol for 5 minutes, and 70% ethanol for 5 minutes, and washed with tap water. Antigen retrieval was carried out by boiling for 10 minutes in citrate buffer in a cooker, followed by cooling in running water. After treatment with 0.5% Triton X-100 for 15 minutes, the slides were washed three times with PBS buffer for 5 minutes.” for “minutes.”
The moisturizing and barrier factors were analyzed by immunofluorescence in the same manner as in Experimental Example 1, and the results thereof are illustrated in FIGS. 11 and 12.

ceramide EOP
increased: amount of aquaporin 3 [1] | amount of filaggrin [2] | amount of ceramide [3]
